Results: US20120214834A1, “IMMUNE ENHANCEMENT COMPOSITION AND KIT AND USE THEREOF” (priority 2011, published 2012)

Test system: Human erythromyeloblastoid leukemia cell line K562 (target cells of NK cells)
Test: Activity of NK cells against pre-treated K562 target cells, by flow cytometer (PKH67-GL / PI)
Type: cell-based
Settings: K562 target cells treated with 10 nM rapamycin alone for 48 hours; effector:target 25:1, 16 hours co-culture
Description: Select Human erythromyeloblastoid leukemia cell line K562 as target cells and culture it by tissue culture technique in RPMI 1640 supplemented with 10% FBS to a proper amount. And then, take a suspension containing 1×10^6 cells and inoculate it in a 6-wells plate. […] And then, put the plate into a 37° C. incubator to continue culturing for 48 hours.
Use 1 mM of green fluorescent cell linker dye PKH67-GL(Sigma-Aldrich), which resolves in alcohol, to label the aforementioned cells. The detail steps are: resuspend 1×10^6 cells in 1 ml of Diluent C(Sigma-Aldrich), add PKH67-GL until the density reaches 4×10^−6 M and dye for 4 minutes under 25 °C. Add 1 ml FBS and 2 ml complete medium to end the coloring reaction, then wash it with PBS for three times. And then, dilute the amount of cells in a complete medium until it reaches 2.5×10^5 cells per ml and confirm the labeling and activity of cells by a Flow cytometer.
Dilute the amount of NK cells (the effector cell of the present Experimental Example) to 6.25×10^6 per ml. Mix 100 μl of the aforementioned diluted cell solution with 100 μl of the target cell solution so that the ratio of effector cells and target cells reaches 25:1. Put the mixed cells in a cell culture and culture for 16 hours in a 37□ incubator with 5% CO2. […]

CO[C@H]1C[C@@H]2CC[C@@H](C)[C@@](O)(O2)C(=O)C(=O)N2CCCC[C@H]2C(=O)O[C@H]([C@H](C)C[C@@H]2CC[C@@H](O)[C@H](OC)C2)CC(=O)[C@H](C)/C=C(\C)[C@@H](O)[C@@H](OC)C(=O)[C@H](C)C[C@H](C)/C=C/C=C/C=C/1C [rapamycin]
activity ratio of NK cells, increase over Control: 15%
